Results published in patent publication US20240390404A1, “ANTI-HUMAN NOROVIRUS AGENT” (KEIO UNIVERSITY, priority 2018, published 2024).

What was measured:
[1] = tested on: human norovirus GII.4 (K2017 strain); assay: Human norovirus proliferation inhibition in 2D organoid after agent pre-treatment, GII.4 strain; type: cell-based; settings: GII.4, 3 days treatment before infection
Procedure: Feces of a human norovirus-infected patent contains a large amount of infectious human norovirus. Thus, the feces of a human norovirus-infected patient is suspended in distilled water or the like to a final concentration of about 10%, to thereby prepare a “10% feces suspension.” The 10% feces suspension is about 10-fold diluted with an ENRA medium. The diluted suspension is added to each of the aforementioned wells having the 2D organoid (5 μL/well) and subjected to incubation for about 3 hours, to thereby proliferate human norovirus. As a result of verification, it has been confirmed that human norovirus proliferates to about 100,000 times the initial count through the culture system employing the 2D organoid.
In the Example, there were tested strains of human norovirus obtained from feces of human norovirus infection patients through the aforementioned procedure and stocked before the test. Specifically, three strains belonging to the genetic group 2 (GII) which accounts for 80 to 90% of the infected patients were selected as test targets. The isolated strain lineages included in GII (FIG. 1) were GII. 6 belonging to “Lineage 1,” GII. 3 belonging to “Lineage 2,” and GII.4 belonging to “Lineage 3” (GII. 6: K2017 strain, GII.3: TCH2004 strain, and GII. 4: K2017 strain).
The effect of 2fp-fucose treatment on proliferation of human norovirus was investigated for each lineage of norovirus. Specifically, after the 2fp-fucose treatment for 3 days, the 2D organoid was infected with each of the aforementioned norovirus strains GII.6, GII. 3, and GII. 4, and the viral proliferation amount was determined on days 3 and 6 after infection (FIG. 4).
Next, there was investigated the effect of the period of time (the number of days) of the 2fp-fucose treatment performed in advance on the anti-human norovirus action of the fucose analog. Specifically, the strain GII. 4 was treated with 2fp-fucose (several concentrations) for 1 to 4 days. […] However, in the group of 3-day treatment, the proliferation inhibition effect was observed by the 200 μM treatment with a certain range of variation in effectiveness. In the group of 4-day treatment, the proliferation inhibition effect was initially observed by 8 μM treatment, and the effect increased in a concentration-dependent manner to a 2fp-fucose concentration of 200 μM. […] Thus, the highest proliferation inhibition effect was obtained in the 2D organoid system through a 200 μM treatment for 3 to 4 days. The test was repeatedly performed three times. Error bars denote SEMs.
The 2D organoid was treated with an agent for 3 days. The tested agents were (a) 2fp-fucose (200 μM), (b) Sofosbuvir (1 μM), (c) Lamivudine (1 μM), (d) Ribavirin (400 μM), and (e) Mizoribine (100 μM). Subsequently, the thus-treated 2D organoid was infected with human norovirus (the norovirus strain GII.4), and the proliferation inhibition effect was determined (FIG. 6). The test was repeatedly performed three times. Error bars denote SEMs.

[2] = tested on: human norovirus GII. 4 strain; assay: Human norovirus proliferation inhibition test by use of 6a-fucose (real-time RT-PCR of genomic RNA), GII.4 strain; type: cell-based
Procedure: (§1) To a medium containing the 2D organoid, 6a-fucose was added so as to adjust a final concentration of 0 μM, 1.6 μM, 8 μM, 40 μM, and 200 μM, and culturing for differentiation induction was performed for 4 days. The culturing was performed by means of a 96-well plate in which 3 wells were dedicated for each 6a-fucose addition system, and one test plate was used for one human norovirus tested. The human norovirus tested included the GII.4 strain and GII. 6 strain. The culturing was performed in a CO2 gas incubator controlled at 37° C.
(§2) On day 4 of culturing, the medium was removed, and the plate was washed with a new medium. Subsequently, each human norovirus was added at 10^5 RNA copies to the plate for infection, and static culturing was performed for 3 hours. After completion of the infection treatment, human norovirus remaining in the medium was removed together with the medium, and the plate was washed thrice with a new medium.
(§3) After washing, 6a-fucose was added again to the new medium so as to adjust a final concentration to 0 μM, 1.6 μM, 8 μM, 40 μM, and 200 μM, and culturing was performed for 6 days.
(§4) A portion (10 μL) of the culture medium was collected from each well at three timings: (a) immediately after the addition to the new medium, (b) on day 3, and (c) on day 6. The sample was centrifuged at 10,000 g for 10 minutes, and the cell precipitate was removed. The human norovirus genomic RNA contained in the supernatant (1 μL) was quantitated through real-time RT-PCR.
(§5) In FIG. 13, the effects of use of 6a-fucose are shown with respect to (a) human norovirus GII. 4 strain and (b) human norovirus GII. 6 strain. The vertical axis in FIG. 13 represents the copy number of human norovirus genomic RNA (RNA titer), and the numeral under each bar graph represents the time of culturing from the start of the test.

[3] = tested on: human norovirus GII. 6 strain; assay: Human norovirus proliferation inhibition test by use of 6a-fucose (real-time RT-PCR of genomic RNA), GII.6 strain; type: cell-based
Procedure: as §1, §2, §3, §4, §5

2D organoid = assay: Cytotoxicity of 6a-fucose to cultured 2D organoid (mono-layer sheet still alive); type: cell-based, human; settings: 6a-fucose 1.6 to 200 μM, any of the tested concentrations
Procedure: as §1

[4] = tested on: human norovirus GII. 4 strain or GII. 6 strain; assay: Effect of treatment with 2fp-fucose or 6a-fucose after differentiation, on infection and reinfection (RNA titer by real-time RT-PCR); type: cell-based; settings: fucose analog 200 μM added on day 5, infection on day (5+2), 3 days culturing
Procedure: (a) The 2D organoid was disseminated to a 96-well plate. After completion of differentiation induction, two fucose analogs (i.e., 2fp-fucose and 6a-fucose) were each added on day 5 to a concentration of 200 μM, to thereby provide addition groups. The results are shown in FIG. 14(a) and FIG. 14(b), respectively. A non-addition group (untreated group) was also provided. Subsequently, the medium was removed from the wells on day (5+2), and the plate was washed. Then, infection with the GII. 4 strain or the GII. 6 strain was performed.
After the infection treatment, the human norovirus remaining in the medium was removed together with the medium, and the plate was washed thrice with a new medium. After washing, the aforementioned active ingredients were each added to the new medium to a concentration of 200 μM (addition groups), and no addition was performed with respect to the untreated (i.e., non-addition) group. Culturing was performed for 3 days. A portion (10 μL) of the medium was sampled from each well, and the samples were centrifuged at 10,000 g for 10 minutes, to thereby remove cell precipitates. The amount of human norovirus genomic RNA in the supernatant (1 μL) was determined through real-time RT-PCR.
In the test system, the effect of the anti-norovirus agent of the present invention provided after human norovirus infection was estimated on the basis of the following study. Specifically, among the fucose analog-treated 2D organoid cells, the living cells on growth day 3 (i.e., most of them were not infected with human norovirus, by virtue of the effect of the fucose analog) were subjected to a secondary infection operation (i.e., reinfection). The effect of the fucose analog on the reinfection was investigated.
In a specific procedure, the addition groups were prepared through the same procedure as employed in (a) above. The primarily infected cells were cultured in the presence of the fucose analog (200 μM) for 3 days, and the medium was removed from each culture system. After completion of washing, the cells were infected again with human norovirus, and then the virus was removed together with the medium. After completion of the next washing, a medium containing the fucose analog (200 μM) (represented by Reinf+2f-fuc or Reinf+6a-fuc), or a fucose analog-free medium (represented by Reinf−2f-fuc or Reinf−6a-fuc) was added thereto, and culturing was performed for further 3 days. Similar to the above case, the amount of human norovirus released to the supernatant was determined as an RNA titer. In the graphs, the two bars on the right side correspond to (Reinf+2f-fuc and Reinf+6a-fuc) or (Reinf−2f-fuc and Reinf−6a-fuc).

CC(C)OC(=O)[C@H](C)N[P@](=O)(OC[C@H]1O[C@@H](n2ccc(=O)[nH]c2=O)[C@](C)(F)[C@@H]1O)Oc1ccccc1 [Sofosbuvir, reference compound]
viral RNA titer from day 0 to day 7 (proliferation inhibition effect) ([1]; agent 1 μM): no effect of inhibiting proliferation of human norovirus

C#C[C@@H]1OC(OC(C)=O)[C@@H](OC(C)=O)[C@H](OC(C)=O)[C@@H]1OC(C)=O (stereo partly drawn) [6a-fucose, 1,2,3,4-tetra-O-acetyl-6,7-dideoxy-L-galacto-hept-6-ynopyranose]
rise in RNA titer relative to the titer at the start of culturing ([2]; 6a-fucose 8 μM): about 10 times | rise in RNA titer ([2]; 6a-fucose 40 μM, day 6): no substantial increase in RNA titer was observed | rise in RNA titer ([2]; 6a-fucose 200 μM): completely inhibited | 6a-fucose concentration at which the proliferation inhibition effect emerged ([2]; 4 days pre-treatment, 6 days culturing after infection): 1.6 µM | RNA titer relative to the titer at the start of culturing ([2]; each 6a-fucose treatment group (any concentration), culture day 6): ≤ 100 times | proliferation inhibition effect ([3]; 6a-fucose 1.6 μM): not recognized | human norovirus genome proliferation ([3]; 6a-fucose 8 μM, culture days 3 and 6): actively suppressed | human norovirus genome proliferation ([3]; 6a-fucose 40 μM): completely inhibited | cytotoxicity to cultured cells (2D organoid): no cytotoxicity attributed to addition of 6a-fucose was observed | rise in RNA titer (proliferation of human norovirus) in the addition group [4]: no rise in RNA titer | rise in RNA titer of the untreated group with respect to the administration system [4]: ≥ 150 fold

NC(=O)c1ncn([C@@H]2O[C@H](CO)[C@@H](O)[C@H]2O)n1 [Ribavirin, reference compound]
viral RNA titer from day 0 to day 7 (proliferation inhibition effect) ([1]; agent 400 μM): no effect of inhibiting proliferation of human norovirus

NC(=O)c1ncn([C@@H]2O[C@H](CO)[C@@H](O)[C@H]2O)c1O [Mizoribine, reference compound]
viral RNA titer from day 0 to day 7 (proliferation inhibition effect) ([1]; agent 100 μM): no effect of inhibiting proliferation of human norovirus
